Assay results as given in ChEMBL document CHEMBL5344442, “Antiviral Activity of Lipophilic Nucleoside Tetraphosphate Compounds” (J Med Chem, 2024).

Legend:
[1] = Lipophilicity of the compound assessed as retention time by RP-18-HPLC analysis; assay type: physicochemical
[2] = Drug metabolism in citrate-stabilized human plasma assessed as d4TTP formation by RP18-HPLC analysis; assay type: ADME, cell-free
[3] = Drug metabolism in citrate-stabilized human plasma assessed as [hydroxy-[hydroxy-[hydroxy-[[(2S,5R)-5-(5-methyl-2,4-dioxo-pyrimidin-1-yl)-2,5-dihydrofuran-2-yl]methoxy]phosphoryl]oxy-phosphoryl]oxy-phosphoryl]oxy-octadecyl-phosphinic acid formation by RP18-HPLC analysis; assay type: ADME, cell-free
[4] = Drug metabolism in citrate-stabilized human plasma assessed as [hydroxy-[hydroxy-[hydroxy-[[(2S,5R)-5-(5-methyl-2,4-dioxo-pyrimidin-1-yl)-2,5-dihydrofuran-2-yl]methoxy]phosphoryl]oxy-phosphoryl]oxy-phosphoryl] octadecyl hydrogen phosphate formation by RP18-HPLC analysis; assay type: ADME, cell-free
[5] = Drug metabolism in PBS buffer assessed as d4TMP metabolite formation at pH 7.3 by RP-18-HPLC analysis; assay type: ADME
[6] = Drug metabolism in human CEM/0 cells assessed as half life of d4TTP by RP18-HPLC analysis; assay type: ADME, cell-based; settings: ccrf-cem
[7] = Drug metabolism in citrate-stabilized human plasma assessed as d4TMP formation by RP18-HPLC analysis; assay type: ADME, cell-free
[8] = Drug metabolism in human CEM/0 cells assessed as d4TDP metabolite formation by RP18-HPLC analysis; assay type: ADME, cell-based; settings: ccrf-cem
[9] = Drug metabolism in citrate-stabilized human plasma assessed as d4TDP formation by RP18-HPLC analysis; assay type: ADME, cell-free
[10] = Drug metabolism assessed as d4TTP metabolite formation in presence of pig liver esterase by RP-18-HPLC analysis; assay type: ADME, Sus scrofa; settings: isolated protein
[11] = Selectivity index, ratio of CC50 for cytotoxicity against human CEM/0 cells to EC50 for antiviral activity against HIV-2 ROD infected in human CEM/0 cells; assay type: toxicity, cell-based; settings: read-out: Ratio CC50/EC50
[12] = Half life of the compound in PBS buffer at pH 7.3 by RP-18-HPLC analysis; assay type: physicochemical
[13] = Stability of compound assessed as pig liver esterase mediated hydrolysis by measuring half life by RP-18-HPLC analysis; assay type: ADME, tissue-based, Sus scrofa
[14] = Half life of the compound in human CEM/0 extracts by RP-18-HPLC analysis; assay type: ADME, CCRF-CEM; settings: CEM/0 cell extracts
[15] = tested on: Human immunodeficiency virus 2; assay: Antiviral activity against HIV-2 ROD infected in human CEM/TK- cells assessed as inhibition of virus-induced cytopathogenicity measured after 4 to 5 days by microscopic analysis; assay type: functional, organism-based; settings: Human immunodeficiency virus 2, ROD, CCRF-CEM
[16] = tested on: Human immunodeficiency virus 2; assay: Antiviral activity against HIV-2 ROD infected in human CEM/0 cells assessed as inhibition of virus-induced cytopathogenicity measured after 4 to 5 days by microscopic analysis; assay type: functional, organism-based; settings: Human immunodeficiency virus 2, ROD, CCRF-CEM
[17] = tested on: Human immunodeficiency virus 1; assay: Antiviral activity against HIV-1 HE infected in human CEM/0 cells assessed as inhibition of virus-induced cytopathogenicity measured after 4 to 5 days by microscopic analysis; assay type: functional, organism-based; settings: Human immunodeficiency virus 1, HE, CCRF-CEM
[18] = Cytotoxicity against human CEM/0 cells assessed as inhibition of cell proliferation; assay type: toxicity, cell-based, CCRF-CEM
[19] = Drug metabolism assessed as [hydroxy-[hydroxy-[hydroxy-[[(2S,5R)-5-(5-methyl-2,4-dioxo-pyrimidin-1-yl)-2,5-dihydrofuran-2-yl]methoxy]phosphoryl]oxy-phosphoryl]oxy-phosphoryl] octadecyl hydrogen phosphate formation in presence of pig liver esterase by RP-18-HPLC analysis; assay type: ADME, Sus scrofa; settings: isolated protein
[20] = Drug metabolism in citrate-stabilized human plasma assessed as d4T formation by RP-18-HPLC analysis; assay type: ADME, cell-free
[21] = Drug metabolism in human CEM/0 cells assessed as d4TTP metabolite formation by RP18-HPLC analysis; assay type: ADME, cell-based; settings: ccrf-cem
[22] = Drug metabolism in human CEM/0 cells assessed as [hydroxy-[hydroxy-[hydroxy-[[(2S,5R)-5-(5-methyl-2,4-dioxo-pyrimidin-1-yl)-2,5-dihydrofuran-2-yl]methoxy]phosphoryl]oxy-phosphoryl]oxy-phosphoryl] octadecyl hydrogen phosphate formation by RP18-HPLC analysis; assay type: ADME, cell-based; settings: ccrf-cem
[23] = Drug metabolism assessed as [hydroxy-[hydroxy-[hydroxy-[[(2S,5R)-5-(5-methyl-2,4-dioxo-pyrimidin-1-yl)-2,5-dihydrofuran-2-yl]methoxy]phosphoryl]oxy-phosphoryl]oxy-phosphoryl]oxy-octadecyl-phosphinic acid formation in presence of pig liver esterase by RP-18-HPLC analysis; assay type: ADME, Sus scrofa; settings: isolated protein
[24] = Drug metabolism in human CEM/0 cells assessed as [hydroxy-[hydroxy-[hydroxy-[[(2S,5R)-5-(5-methyl-2,4-dioxo-pyrimidin-1-yl)-2,5-dihydrofuran-2-yl]methoxy]phosphoryl]oxy-phosphoryl]oxy-phosphoryl]oxy-octadecyl-phosphinic acid formation by RP18-HPLC analysis; assay type: ADME, cell-based; settings: ccrf-cem
[25] = Selectivity index, ratio of CC50 for cytotoxicity against human CEM/TK- cells to EC50 for antiviral activity against HIV-2 ROD infected in human CEM/TK- cells; assay type: toxicity, cell-based; settings: read-out: Ratio CC50/EC50
[26] = Drug metabolism assessed as [4-[[hydroxy-[hydroxy-[hydroxy-[hydroxy-[[(2S,5R)-5-(5-methyl-2,4-dioxo-pyrimidin-1-yl)-2,5-dihydrofuran-2-yl]methoxy]phosphoryl]oxy-phosphoryl]oxy-phosphoryl]oxy-phosphoryl]oxymethyl]phenyl]-decanoate formation in presence of pig liver esterase by RP-18-HPLC analysis; assay type: ADME, Sus scrofa; settings: isolated protein
[27] = Drug metabolism in human CEM/0 cells assessed as half life of d4T4P by RP18-HPLC analysis; assay type: ADME, cell-based; settings: ccrf-cem
[28] = Drug metabolism assessed as d4T4P metabolite formation in presence of pig liver esterase by RP-18-HPLC analysis; assay type: ADME, Sus scrofa; settings: isolated protein
[29] = Drug metabolism in human CEM/0 cells assessed as [4-[[hydroxy-[hydroxy-[hydroxy-[hydroxy-[[(2S,5R)-5-(5-methyl-2,4-dioxo-pyrimidin-1-yl)-2,5-dihydrofuran-2-yl]methoxy]phosphoryl]oxy-phosphoryl]oxy-phosphoryl]oxy-phosphoryl]oxymethyl]phenyl]-decanoate formation by RP18-HPLC analysis; assay type: ADME, cell-based; settings: ccrf-cem
[30] = Drug metabolism in citrate-stabilized human plasma assessed as [4-[[hydroxy-[hydroxy-[hydroxy-[hydroxy-[[(2S,5R)-5-(5-methyl-2,4-dioxo-pyrimidin-1-yl)-2,5-dihydrofuran-2-yl]methoxy]phosphoryl]oxy-phosphoryl]oxy-phosphoryl]oxy-phosphoryl]oxymethyl]phenyl]-decanoate formation by RP-18-HPLC analysis; assay type: ADME, cell-free

Compound: CCCCCCCCCCCCCCCCCCOP(=O)(OCCCCCCCCCCCCCCCCCC)OP(=O)(O)OP(=O)(O)OP(=O)(O)OC[C@@H]1C=C[C@H](n2cc(C)c(=O)[nH]c2=O)O1
- Retention_time [1]: 20.7 min

Compound: CCCCCCCCCCCCCCCCCCP(=O)(OCCCC)OP(=O)(O)OP(=O)(O)OP(=O)(O)OC[C@@H]1C=C[C@H](n2cc(C)c(=O)[nH]c2=O)O1 (stereo partly drawn)
- Drug metabolism [2]: Metabolite_Notdetected
- Drug metabolism [3]: Metabolite_Notdetected
- Drug metabolism [4]: Metabolite_Notdetected
- Drug metabolism [5]: Metabolite_Detected
- t1/2 [6]: 0.633 h
- Drug metabolism [7]: Metabolite_Notdetected
- Drug metabolism [8]: Metabolite_Detected
- Drug metabolism [9]: Metabolite_Notdetected
- Drug metabolism [10]: Metabolite_Detected
- Retention_time [1]: 14.4 min

Compound: CCCCCCCCCCCCCCCCCCP(=O)(O)OP(=O)(O)OP(=O)(O)OP(=O)(O)OC[C@@H]1C=C[C@H](n2cc(C)c(=O)[nH]c2=O)O1
- selectivity ratio [11]: 105
- Retention_time [1]: 13.2 min

Compound: CCCCCCCCCC(=O)Oc1ccc(COP(=O)(OCc2ccc(OC(=O)CCCCCCCCC)cc2)OP(=O)(O)OP(=O)(O)OC[C@@H]2C=C[C@H](n3cc(C)c(=O)[nH]c3=O)O2)cc1
- half-life [12]: 44 h
- half-life [13]: 4.92 min
- half-life [14]: 2.8 h
- Retention_time [1]: 16.3 min

Compound: CCCCCCCCCCCCCCCCCCOP(=O)(OCCCC)OP(=O)(O)OP(=O)(O)OC[C@@H]1C=C[C@H](n2cc(C)c(=O)[nH]c2=O)O1 (stereo partly drawn)
- EC50 [15]: 0.032 µM
- EC50 [16]: 0.041 µM
- EC50 [17]: 0.07 µM

Compound: CCCCCCCCCCCCCCCCCCOP(=O)(OCc1ccc(OC(=O)CCCC)cc1)OP(=O)(O)OP(=O)(O)OC[C@@H]1C=C[C@H](n2cc(C)c(=O)[nH]c2=O)O1 (stereo partly drawn)
- EC50 [15]: 0.17 µM
- CC50 [18]: 13 µM
- selectivity ratio [11]: 76
- half-life [12]: 237 h
- EC50 [16]: 0.16 µM
- EC50 [17]: 0.18 µM

Compound: CCCCCCCCCCCCCCCCCCOP(=O)(OCc1ccc(OC(=O)CCCC)cc1)OP(=O)(O)OP(=O)(O)OP(=O)(O)OC[C@@H]1C=C[C@H](n2cc(C)c(=O)[nH]c2=O)O1 (stereo partly drawn)
- Drug metabolism [19]: Metabolite_Detected
- Drug metabolism [4]: Metabolite_Detected
- Drug metabolism [20]: Metabolite_Detected
- Drug metabolism [21]: Metabolite_Detected
- Drug metabolism [8]: Metabolite_Detected
- Drug metabolism [10]: Metabolite_Detected
- Drug metabolism [22]: Metabolite_Detected
- Retention_time [1]: 15.3 min

Compound: CCCCCCCCCCCCCCCCCCOP(=O)(OCC(CC)CCCC)OP(=O)(O)OP(=O)(O)OP(=O)(O)OC[C@@H]1C=C[C@H](n2cc(C)c(=O)[nH]c2=O)O1 (stereo partly drawn)
- Retention_time [1]: 15.2 min

Compound: CCCCOP(=O)(OCCCC)OP(=O)(O)OP(=O)(O)OP(=O)(O)OC[C@@H]1C=C[C@H](n2cc(C)c(=O)[nH]c2=O)O1
- Retention_time [1]: 10.2 min

Compound: CCCCCCCCCCCCCCCCCCP(=O)(OCc1ccc(OC(=O)CCCC)cc1)OP(=O)(O)OP(=O)(O)OP(=O)(O)OC[C@@H]1C=C[C@H](n2cc(C)c(=O)[nH]c2=O)O1 (stereo partly drawn)
- EC50 [15]: 0.006 µM
- Drug metabolism [21]: Metabolite_Detected
- Drug metabolism [23]: Metabolite_Detected
- Drug metabolism [8]: Metabolite_Detected
- Drug metabolism [10]: Metabolite_Detected
- Retention_time [1]: 15.2 min
- Drug metabolism [24]: Metabolite_Detected

Compound: CCCCCCCCCCCCCCCCCCP(=O)(OCc1ccc(OC(=O)CCCC)cc1)OP(=O)(O)OP(=O)(O)OC[C@@H]1C=C[C@H](n2cc(C)c(=O)[nH]c2=O)O1 (stereo partly drawn)
- EC50 [15]: 0.042 µM
- selectivity ratio [11]: 452
- half-life [12]: 646 h
- EC50 [16]: 0.021 µM
- EC50 [17]: 0.007 µM

Compound: Cc1cn([C@H]2C=C[C@@H](CO)O2)c(=O)[nH]c1=O [STAVUDINE]
- selectivity ratio [11]: 1
- selectivity ratio [25]: 1

Compound: Cc1cn([C@H]2C=C[C@@H](COP(=O)(O)OP(=O)(O)OP(=O)(O)OP(=O)(O)O)O2)c(=O)[nH]c1=O
- selectivity ratio [11]: 454
- Retention_time [1]: 10.2 min

Compound: CCCCCCCCCCCCCCCCCCP(=O)(OCC(CC)CCCC)OP(=O)(O)OP(=O)(O)OP(=O)(O)OC[C@@H]1C=C[C@H](n2cc(C)c(=O)[nH]c2=O)O1 (stereo partly drawn)
- Retention_time [1]: 15.1 min

Compound: CCCCCCCCCCCCCCCCCCOP(=O)(OCCCC)OP(=O)(O)OP(=O)(O)OP(=O)(O)OC[C@@H]1C=C[C@H](n2cc(C)c(=O)[nH]c2=O)O1 (stereo partly drawn)
- Drug metabolism [5]: Metabolite_Detected
- t1/2 [6]: 0.633 h
- Drug metabolism [8]: Metabolite_Detected
- Drug metabolism [10]: Metabolite_Detected
- Retention_time [1]: 14.5 min

Compound: CCCCCCCCCCCCCCCCOC(=O)Oc1ccc(COP(=O)(OCc2ccc(OC(=O)CCCC)cc2)OP(=O)(O)OP(=O)(O)OP(=O)(O)OC[C@@H]2C=C[C@H](n3cc(C)c(=O)[nH]c3=O)O2)cc1 (stereo partly drawn)
- Retention_time [1]: 16 min

Compound: CCCCCCCCCCCCCCCCCCOP(=O)(O)OP(=O)(O)OP(=O)(O)OP(=O)(O)OC[C@@H]1C=C[C@H](n2cc(C)c(=O)[nH]c2=O)O1
- Retention_time [1]: 13.3 min

Compound: CCCCCCCCCCCCCCCCCCP(=O)(OCCCC)OP(=O)(O)OP(=O)(O)OC[C@@H]1C=C[C@H](n2cc(C)c(=O)[nH]c2=O)O1 (stereo partly drawn)
- EC50 [15]: 0.018 µM
- EC50 [16]: 0.035 µM
- EC50 [17]: 0.031 µM

Compound: CCCCCCCCCC(=O)Oc1ccc(COP(=O)(OCc2ccc(OC(=O)CCCCCCCCC)cc2)OP(=O)(O)OP(=O)(O)OP(=O)(O)OC[C@@H]2C=C[C@H](n3cc(C)c(=O)[nH]c3=O)O2)cc1
- Drug metabolism [26]: Metabolite_Detected
- Drug metabolism [20]: Metabolite_Detected
- t1/2 [6]: 0.633 h
- t1/2 [27]: 0.367 h
- Drug metabolism [10]: Metabolite_Detected
- Drug metabolism [28]: Metabolite_Detected
- Drug metabolism [29]: Metabolite_Detected
- Retention_time [1]: 15.2 min
- Drug metabolism [30]: Metabolite_Detected

Compound: CCCCCCCCCCCCOP(=O)(OCCCCCCCCCCCC)OP(=O)(O)OP(=O)(O)OP(=O)(O)OC[C@@H]1C=C[C@H](n2cc(C)c(=O)[nH]c2=O)O1
- Retention_time [1]: 14.7 min
